Source: patent US20230114207A1, “THE COMBINATION OF CYCLIN DEPENDENT KINASE 7 INHIBITOR AND IMMUNOTHERAPY FOR TREATMENT OF CANCER” (Dana-Farber Cancer Institute, Inc., priority 2019, published 2023)

How the values were obtained:
[1] = tested on: SCLC cells (RPP631, DMS79, GLC16, NCI-H69, NCI-H82); experiment: Cell viability assay (CCK-8); format: cell-based, mouse, human
Protocol: Cells were seeded in 96-well plates (0.01-0.02×10^6 cells/well) in media and treated with YKL-5-124 at indicated concentrations and time points. Cell viability was measured using the MTS-based CCK-8 assay (Dojindo, Cat #CK04). Absorption at 450 nm was measured 3 hr after addition of CCK-8 reagent to cells.

[2] = tested on: intratumoral cell populations, RPP orthotopic mice; experiment: Single-cell RNA sequencing of tumor-bearing lungs; format: in vivo, mouse
Protocol: To account for interindividual variability, we harvested pooled fresh tumor-bearing lungs from two mice in two independent cohorts of RPP orthotopic mice which were treated with control, YKL-5-124, anti-PD-1 and combination treatment for seven days. Single cell suspensions were achieved as described above and were sorted using DAPI staining. Cells were then resuspended into single cells with 0.4% BSA for 10× genomics processing. Cell suspensions were loaded onto a 10× Genomics Chromium instrument to generate single-cell gel beads in emulsion (GEMs). Approximately 5,000 to 10,000 cells were loaded per channel. scRNA-seq libraries were prepared using the following Single Cell 3′ Reagent Kits: Chromium™ Single Cell 3′ Library & Gel Bead Kit v2 (PN-120237), Single Cell 3′ Chip Kit v2 (PN-120236) and i7 Multiplex Kit (PN-120262) (10× Genomics, Pleasanton, Calif., USA), and following the Single Cell 3′ Reagent Kits v2 User Guide (Manual Part #CG00052 Rev A). Libraries were run on an Illumina HiSeq 4000 system (SY-401-4001, Illumina) as 2×150 paired-end reads, one full lane per sample, for approximately >90% sequencing saturation.
The Cell Ranger Single Cell Software Suite, version 1.3 was used to perform sample de-multiplexing, barcode and UMI processing, and single-cell 3′ gene counting. A detailed description of the pipeline and specific instructions to run it can be found at: https://Support.10×genomics.com/single-cell-gene-expression/software/pipelines/latest/what-is-cell-ranger). A high quality gene expression matrix was created in sequential preprocessing steps as provided in the Seurat (v2.3.4) pipeline. First only genes that were detected in both independent scRNAseq datasets were retained and cells were excluded if respectively more than […] of detected genes were from mitochondrial or ribosomal origin or if less than 500 genes were detected. The count matrix was subsequently log-normalized with a scale-factor of 10000 and the obtained normalized matrix was further corrected by retaining the residuals after regressing out systematic changes due to number of detected UMIs, percent genes from mitochondrial or ribosomal origin.
Cells from both independent datasets were merged together in canonical correlation (CC) space using the intersection of highly variable genes, identified as genes with higher-than-expected variability in consecutive ranked expression bins, from both datasets. The implementation of CC alignment and selection of downstream dimensions to use was performed as described in the Seurat package. Cells were clustered using the Louvain algorithm based on a shared nearest-neighbor network. The final resolution of all subsequent clustering analyses was determined by the biological questions and the need for coarse or fine-grained detail as explored in the subsequent cluster annotation. Clusters were annotated using input from multiple sources, we i) calculated a stromal, cancer and immune score using the estimate (v1.0.13) package in R, ii) identified cluster specific gene expression markers based on gini-scores, iii) created a hierarchical tree based on Pearson correlation scores between clusters to visualize lineage relationships and iv) compared clusters to those of the Immgen database using the SingleR (v0.2.1) package in R. UMAP as implemented by the uwot (v0.0.0.9010) package in R was used to visualize clusters in 2D CC space. Overall this strategy was hierarchically used to assess all cells, cancer cells only, immune cells only and finally T-cells only.
In the first clustering step, several additional analyses were performed to remove dubious or non-reproducible clusters from downstream analyses. To identify contamination of immune cell clusters with cancer cells we performed k-means (2 centers) clustering on all cells on identified and known canonical markers (Epcam, Calca, Stmn1, Ascl1, Krt7, Nfib, Krt8, Krt18) specific to cancer cells. […]

With C=CC(=O)Nc1ccc(C(=O)Nc2n[nH]c3c2CN(C(=O)N[C@H](CN(C)C)c2ccccc2)C3(C)C)cc1 [YKL-5-124] the “growth rate (cell viability) compared to control cells” value ([1]; all tested concentrations, up to 7 days) was “significant reduction”, the “kind of growth effect” value ([1]; up to day 7) was “cytostatic effect with a tendency of cytotoxic effects at longer time points” and the “frequencies of total immune cell components” value ([2]; compared with control group) was “increase”. For the same compound, the DCs ([2]; in comparison to control) was “increase”, the myeloid compartments ([2]; in comparison to control) was “higher numbers of monocytes and neutrophils” and the “percentage of total T cells, NK cells and ILC cells” value ([2]; in comparison to control) was “significant increase”. For the same compound, the “genes within the 'cell-cycle' and 'E2F target' signatures (GSEA)” value ([2]; in vivo) was “significantly downregulated”, the “immune response signaling ('Interferon gamma response', 'Inflammatory response')” value ([2]; in vivo) was “triggered robust immune response signaling” and the “cell-cycle state distribution of cancer cells” value ([2]; in vivo, seven days) was “mainly arrested at G1 phase”. The “percentage of S phase cells (cluster 4, 5 and 6)” value ([2]; in vivo, seven days) was “significant decrease”, the “c0, c8 and c9 clusters of naive-like CD8^+ T cells” value ([2]; mouse, in vivo) was “reduction” and the c4 percentage ([2]; mouse, in vivo) was “slight reduction”.
